Experimental findings from patent EP4289427A1, “DIHYDRO[1,8]NAPHTHYRIDIN-7-ONE AND PYRIDO[3,2-B][1,4]OXAZIN-3-ONE FOR USE IN TREATING CANCER, AND METASTASES IN PARTICULAR” (Anagenesis Biotechnologies, priority 2022, dated 2023) are described below.

The test system of one data set is 4T1 cells. The experiment in a line: Cytotoxicity assay (CellTiter-Glo 2.0) on 4T1 cells. In kind it is cell-based, Mouse. Particulars: incubation 2 days; for pIC50: Mus musculus, 48 h. Here is the method:
(§1) Cytotoxicity assays consist in treating cells with compounds and assessing remaining viability after a defined incubation time, depending on the cell line. CellTiter-Glo® 2.0 reagent allows viability measurement by quantification of ATP present, which is an indicator of metabolically active cells.
(§2) The cancer cell lines were cultivated in their respective growth medium (see tables 6a and 6b). On day 0 of the cytotoxicity assay, the cells were harvested and seeded into a 384-well plate at a defined density in their respective growth medium (see tables 6a and 6b). Compounds to be tested were then added onto the cells and incubated for a defined duration (see tables 6a and 6b). Following incubation, CellTiter-Glo® 2.0 reagent (cat.no. G9241 from Promega) was added into the wells (vol/vol, according to the manufacturer's recommendations), plates were gently shaken and incubated for 10 minutes in the dark at room temperature. Bioluminescence was then measured with a multimode plate reader (Victor Nivo from Perkin Elmer), and cell viability and relative IC50 were determined. Table 6a: Cancer cell characteristics, culture and cytotoxic assay conditions

The next data set has as its system EoL-1 cells. The experiment in a line: Cytotoxicity assay (CellTiter-Glo 2.0) on EoL-1 cells. The settings on record: incubation 1 day; for pIC50: Homo sapiens, EOL1, 24 h. In kind it is cell-based, Human. Here is the method:
as §1, §2

Another data set concerns MDA-MB-231 cells. The experiment in a line: Cytotoxicity assay (CellTiter-Glo 2.0) on MDA-MB-231 cells. It counts as cell-based, Human. The settings on record: incubation 3 days; for pIC50: Homo sapiens, 72 h. Here is the method:
as §1, §2

The test system of the next data set is HUVECs. In words: Tube formation assay (anti-angiogenic activity). It counts as cell-based, human. The settings on record: incubation 16 to 18 hours; for pIC50: Homo sapiens, HUVEC. The source says:
Angiogenesis is a phenomenon that includes different processes, such as endothelial cell proliferation, migration and differentiation that lead to the formation of new blood vessels. Tube formation assay is a standard in vitro test to assess angiogenesis: briefly, human Umbilical Vein Endothelial cells (hereafter "HUVECs") cultivated on a gelled basement matrix spontaneously proliferate, migrate and differentiate to form tube-like structures, that appear elongated and that connect to each other to form a network.
HUVECs were cultivated in Endothelial Cell Growth Medium (cat.no. C-22010 from Promocell) supplemented with 1% PenStrep (hereafter "HUVEC medium"). On day 0, HUVECs were harvested and transferred into a 384-well plate precoated with 10 µl/well of Cultrex UltiMatrix Reduced Growth factor basement membrane (cat.no. BME001-10 from BioTechne), according to the manufacturer's instructions, at a density of 5000 cells/well in HUVEC medium. Compounds to be tested were then added onto the cells and incubated for 16 to 18 hours at 37°C. After this incubation period, the cells were stained with calcein-AM (cat.no. 10462052 from Fisher Scientific) and pictures were acquired using a confocal fluorescent microscope (IXM from Molecular Devices). Tube formation was measured with MetaXpress® Software.

The next data set relates to RD cells. In words: Cytotoxicity assay (CellTiter-Glo 2.0) on RD cells. In kind it is cell-based, Human. Particulars: for pIC50: Homo sapiens. Here is the method: as §1, §2

SMILES strings stand for the structures. pIC50: −log10 of the molar value.

For the molecule `CC(C)(C)c1cnc(NC(=O)Nc2ccc(Oc3ccnc4c3CCC(=O)N4)c3ccccc23)s1` [Compound 007, 1-(5-(tert-butyl)thiazol-2-yl)-3-(4-((7-oxo-5,6,7,8-tetrahydro-1,8-naphthyridin-4-yl)oxy)naphthalen-1-yl)urea], the pIC50 in the data set with 4T1 cells was 5.30 to 6.00; with EoL-1 cells, 7.00 to 8.00; with MDA-MB-231 cells, 5.30 to 6.00; in the data set with HUVECs, above 7.00; in the data set on RD cells (48 h, 2 day-treatment), 5.00 to 5.30; in the data set with RD cells (96 h, 4 day-treatment), 5.30 to 6.00. Also, the Cytotoxicity result is reported as “+++ (cytotoxicity ≥ 85%)” in the data set on 4T1 cells; “+++ (cytotoxicity ≥ 85%)” in the data set with EoL-1 cells; “++ (50% ≤ cytotoxicity < 85%)” with MDA-MB-231 cells; “+ (20 % ≤ cytotoxicity < 50%)” with RD cells (2 day-treatment); “++ (50% ≤ cytotoxicity < 85%)” with RD cells (4 day-treatment). Further, in the data set with HUVECs, the Angiogenesis inhibition result was “+++ (angiogenesis inhibition ≥ 80%)”.

`CN(C)Cc1ccc(-n2nc(C(C)(C)C)cc2NC(=O)Nc2ccc(Oc3ccnc4c3OCC(=O)N4)cc2C(F)(F)F)cc1` [Compound 049, 1-[5-tert-butyl-2-[4-(dimethylaminomethyl)phenyl]pyrazol-3-yl]-3-[4-[(3-oxo-4H-pyrido[3,2-b][1,4]oxazin-8-yl)oxy]-2-(trifluoromethyl)phenyl]urea]: the pIC50 with 4T1 cells is 5.30 to 6.00; in the data set on EoL-1 cells, 7.00 to 8.00; with MDA-MB-231 cells, 5.00 to 5.30; in the data set on HUVECs, 6.30 to 7.00; with RD cells (48 h, 2 day-treatment), 5.00 to 5.30; in the data set with RD cells (96 h, 4 day-treatment), 5.00 to 5.30. Moreover, the Cytotoxicity result is listed as “+++ (cytotoxicity ≥ 85%)” with 4T1 cells; “++ (50% ≤ cytotoxicity < 85%)” with EoL-1 cells; “+++ (cytotoxicity ≥ 85%)” in the data set with MDA-MB-231 cells; “+++ (cytotoxicity ≥ 85%)” in the data set with RD cells (2 day-treatment); “+++ (cytotoxicity ≥ 85%)” with RD cells (4 day-treatment). Besides, in the data set on HUVECs, the Angiogenesis inhibition result is on record as “+++ (angiogenesis inhibition ≥ 80%)”.

For `CC(C)(C)c1cc(NC(=O)Nc2ccc(Oc3ccnc4c3CCC(=O)N4)cc2C(F)(F)F)n(-c2cccc(F)c2)n1` [Compound 015, 1-[5-tert-butyl-2-(3-fluorophenyl)pyrazol-3-yl]-3-[4-[(7-oxo-6,8-dihydro-5H-1,8-naphthyridin-4-yl)oxy]-2-(trifluoromethyl)phenyl]urea], the pIC50 is above 6.00 in the data set on 4T1 cells; 7.00 to 8.00 in the data set on EoL-1 cells; 5.30 to 6.00 in the data set on MDA-MB-231 cells; above 7.00 in the data set with HUVECs; 5.00 to 5.30 with RD cells (48 h, 2 day-treatment); 5.30 to 6.00 in the data set with RD cells (96 h, 4 day-treatment). Moreover, the Cytotoxicity result in the data set with 4T1 cells is listed as “+++ (cytotoxicity ≥ 85%)”; in the data set with EoL-1 cells, “++ (50% ≤ cytotoxicity < 85%)”; with MDA-MB-231 cells, “++ (50% ≤ cytotoxicity < 85%)”; in the data set on RD cells (2 day-treatment), “++ (50% ≤ cytotoxicity < 85%)”; in the data set with RD cells (4 day-treatment), “++ (50% ≤ cytotoxicity < 85%)”. Further, the Angiogenesis inhibition result with HUVECs is “+++ (angiogenesis inhibition ≥ 80%)”.

Consider `CSc1cc(Oc2ccnc3c2CCC(=O)N3)ccc1NC(=O)Nc1cc(C(C)(C)C)on1` [Compound 026, 1-(5-tert-butylisoxazol-3-yl)-3-[2-methylsulfanyl-4-[(7-oxo-6,8-dihydro-5H-1,8-naphthyridin-4-yl)oxy]phenyl]urea], for which the pIC50 is 5.30 to 6.00 in the data set with 4T1 cells; above 9.00 with EoL-1 cells; 5.30 to 6.00 in the data set on MDA-MB-231 cells; 6.30 to 7.00 with HUVECs; 5.30 to 6.00 with RD cells (48 h, 2 day-treatment); 5.30 to 6.00 in the data set on RD cells (96 h, 4 day-treatment). The Cytotoxicity entry is “+++ (cytotoxicity ≥ 85%)” in the data set with 4T1 cells; “+++ (cytotoxicity ≥ 85%)” in the data set on EoL-1 cells; “++ (50% ≤ cytotoxicity < 85%)” in the data set with MDA-MB-231 cells; “++ (50% ≤ cytotoxicity < 85%)” with RD cells (2 day-treatment); “++ (50% ≤ cytotoxicity < 85%)” with RD cells (4 day-treatment). Also, the Angiogenesis inhibition entry in the data set with HUVECs is given as “+++ (angiogenesis inhibition ≥ 80%)”.

For the molecule `CN(C)Cc1cccc(-n2nc(C(C)(C)C)cc2NC(=O)Nc2ccc(Oc3ccnc4c3CCC(=O)N4)cc2C(F)(F)F)c1` [Compound 028, 1-[5-tert-butyl-2-[3-[(dimethylamino)methyl]phenyl]pyrazol-3-yl]-3-[4-[(7-oxo-6,8-dihydro-5H-1,8-naphthyridin-4-yl)oxy]-2-(trifluoromethyl)phenyl]urea], the pIC50 is above 6.00 in the data set on 4T1 cells; 8.00 to 9.00 in the data set with EoL-1 cells; 5.30 to 6.00 with MDA-MB-231 cells; above 7.00 in the data set on HUVECs; 5.30 to 6.00 with RD cells (48 h, 2 day-treatment); 5.30 to 6.00 in the data set on RD cells (96 h, 4 day-treatment). Also, the Cytotoxicity result in the data set with 4T1 cells was “+++ (cytotoxicity ≥ 85%)”; in the data set on EoL-1 cells, “++ (50% ≤ cytotoxicity < 85%)”; in the data set on MDA-MB-231 cells it was “+++ (cytotoxicity ≥ 85%)”; with RD cells (2 day-treatment), “++ (50% ≤ cytotoxicity < 85%)”; in the data set with RD cells (4 day-treatment), “+++ (cytotoxicity ≥ 85%)”. Moreover, in the data set on HUVECs, the Angiogenesis inhibition result is reported as “+++ (angiogenesis inhibition ≥ 80%)”.

As to `CSc1cc(Oc2ccnc3c2OCC(=O)N3)ccc1NC(=O)Nc1cc(C(C)(C)C)nn1-c1ccc(CCN(C)C)cc1` [Compound 051, 1-[5-tert-butyl-2-[4-[2-(dimethylamino)ethyl]phenyl]pyrazol-3-yl]-3-[2-methylsulfanyl-4-[(3-oxo-4H-pyrido[3,2-b][1,4]oxazin-8-yl)oxy]phenyl]urea], the pIC50 is 5.30 to 6.00 in the data set on 4T1 cells; 8.00 to 9.00 in the data set on EoL-1 cells; 5.30 to 6.00 in the data set on MDA-MB-231 cells; above 7.00 in the data set on HUVECs; 5.30 to 6.00 in the data set on RD cells (48 h, 2 day-treatment); 5.30 to 6.00 in the data set with RD cells (96 h, 4 day-treatment). Moreover, the Cytotoxicity entry in the data set on 4T1 cells, in the data set with EoL-1 cells, with MDA-MB-231 cells, in the data set on RD cells (2 day-treatment) and in the data set on RD cells (4 day-treatment) was “+++ (cytotoxicity ≥ 85%)” in each case. Further, the Angiogenesis inhibition entry in the data set with HUVECs is “+++ (angiogenesis inhibition ≥ 80%)”.

Regarding `CC(C)(C)c1cc(NC(=O)Nc2ccc(Oc3ccnc4c3OCC(=O)N4)cc2C(F)(F)F)on1` [Compound 037, 1-(3-tert-butylisoxazol-5-yl)-3-[4-[(3-oxo-4H-pyrido[3,2-b][1,4]oxazin-8-yl)oxy]-2-(trifluoromethyl)phenyl]urea], the pIC50 in the data set with 4T1 cells is 5.30 to 6.00; in the data set on EoL-1 cells, 8.00 to 9.00; in the data set with MDA-MB-231 cells, 5.30 to 6.00; with HUVECs, 6.30 to 7.00; in the data set with RD cells (48 h, 2 day-treatment) it was 5.00 to 5.30; in the data set on RD cells (96 h, 4 day-treatment), 5.30 to 6.00. The Cytotoxicity result in the data set on 4T1 cells is reported as “+++ (cytotoxicity ≥ 85%)”; in the data set on EoL-1 cells, “+++ (cytotoxicity ≥ 85%)”; in the data set on MDA-MB-231 cells it was “++ (50% ≤ cytotoxicity < 85%)”; with RD cells (2 day-treatment), “++ (50% ≤ cytotoxicity < 85%)”; in the data set with RD cells (4 day-treatment), “++ (50% ≤ cytotoxicity < 85%)”. In addition, the Angiogenesis inhibition entry in the data set on HUVECs is “++ (80% > angiogenesis inhibition ≥ 50%)”.

For `CC(C)(C)c1cc(NC(=O)Nc2ccc(Oc3ccnc4c3CCC(=O)N4)cc2C(F)(F)F)n(-c2cccc(CN3CCOCC3)c2)n1` [Compound 045, 1-[5-tert-butyl-2-[3-(morpholinomethyl)phenyl]pyrazol-3-yl]-3-[4-[(7-oxo-6,8-dihydro-5H-1,8-naphthyridin-4-yl)oxy]-2-(trifluoromethyl)phenyl]urea], the pIC50 is above 6.00 with 4T1 cells; 7.00 to 8.00 in the data set on EoL-1 cells; 5.30 to 6.00 in the data set with MDA-MB-231 cells; 6.30 to 7.00 in the data set on HUVECs; 5.00 to 5.30 with RD cells (48 h, 2 day-treatment); 5.00 to 5.30 in the data set on RD cells (96 h, 4 day-treatment). Also, the Cytotoxicity result with 4T1 cells is recorded as “+++ (cytotoxicity ≥ 85%)”; in the data set on EoL-1 cells, “++ (50% ≤ cytotoxicity < 85%)”; with MDA-MB-231 cells, “++ (50% ≤ cytotoxicity < 85%)”; in the data set with RD cells (2 day-treatment), “+ (20 % ≤ cytotoxicity < 50%)”; in the data set on RD cells (4 day-treatment), “+ (20 % ≤ cytotoxicity < 50%)”. Besides, the Angiogenesis inhibition entry in the data set with HUVECs is recorded as “+++ (angiogenesis inhibition ≥ 80%)”.
